The values that follow come from ChEMBL document CHEMBL5214895, “3-Hydroxy-propanamidines, a New Class of Orally Active Antimalarials Targeting Plasmodium falciparum” (J Med Chem, 2021).

Data set [1] relates to Plasmodium falciparum. The data set is described as follows: Antiplasmodial activity against chloroquine-sensitive asexual blood stage Plasmodium falciparum 3D7 assessed as inhibition of parasite growth incubated for […] by HRP2-ELISA. The data set is classed as functional, organism-based. For orientation: ELISA stands for enzyme-linked immunosorbent assay.
In data set [2] the test system is Plasmodium falciparum. Nature of the data set: Antiplasmodial activity against multidrug resistant asexual blood stage Plasmodium falciparum Dd2 assessed as inhibition of parasite growth incubated for […] by HRP2-ELISA. The class given is functional, organism-based.
Data set [3] in a line: Cytotoxicity against human HepG2 cells assessed as inhibition of cell growth incubated for 24 hrs by neutral red dye based analysis. The class given is toxicity.
Data set [4] can be described thus: Selectivity index, ratio of IC50 for cytotoxicity against human HepG2 cells to IC50 for antiplasmodial activity against chloroquine-sensitive asexual blood stage Plasmodium falciparum 3D7. The data set is classed as toxicity, cell-based. The conditions noted are these: read-out: Ratio IC50.
Data set [5] deals with Plasmodium berghei. Nature of the data set: Antimalarial activity against Plasmodium berghei infected in mouse assessed as reduction in parasitemia in blood at 30 mg/kg, po administered for 4 times starting from 4 to 72 hrs and measured after 96 hrs post infection (reference value: 0%). The class given is functional. More on the design: scale not given: the % may be the effect or the level left.

Data set [6] deals with Plasmodium berghei. The data set is described as follows: Antimalarial activity against Plasmodium berghei infected in mouse assessed as mean survival days at 30 mg/kg, po administered for 4 times starting from 4 to 72 hrs and monitered for 30 days (reference value: 4 days). The data set is classed as functional. The conditions noted are these: time 30 day.
The nature of data set [7]: Cytotoxicity against human HeLa cells assessed as inhibition of cell growth incubated for 24 hrs by neutral red dye based analysis. The class given is toxicity.
A short description of data set [8]: Selectivity index, ratio of IC50 for cytotoxicity against human HeLa cells to IC50 for antiplasmodial activity against chloroquine-sensitive asexual blood stage Plasmodium falciparum 3D7. The class given is toxicity, cell-based. The conditions noted are these: read-out: Ratio IC50.
Data set [9] can be described thus: Cytotoxicity against HEK293 cells assessed as inhibition of cell growth incubated for 24 hrs by neutral red dye based analysis. The data set is classed as toxicity. The conditions noted are these: human.
The nature of data set [10]: Selectivity index, ratio of IC50 for cytotoxicity against HEK293 cells to IC50 for antiplasmodial activity against chloroquine-sensitive asexual blood stage Plasmodium falciparum 3D7. The class given is toxicity, cell-based. Particulars: human, read-out: Ratio IC50.
Data set [11] concerns Plasmodium berghei. Nature of the data set: Antimalarial activity against Plasmodium berghei infected in mouse assessed as reduction in parasitemia in blood at 50 mg/kg, po administered for 4 times starting from 4 to 72 hrs and measured after 96 hrs post infection (reference value: 0%). The class given is functional. More on the design: scale not given: the % may be the effect or the level left.

In data set [12] the test system is Plasmodium falciparum. Nature of the data set: Antiplasmodial activity against multidrug resistant asexual blood stage Plasmodium falciparum Dd2-B2 assessed as inhibition of parasite growth incubated for 72 hrs by SYBR green-based assay. The class given is functional, organism-based. The conditions noted are these: Dd2-B2, 72 h.
Data set [13] concerns Plasmodium falciparum. The data set is described as follows: Antiplasmodial activity against hyper mutating Plasmodium falciparum Dd2 harboring proofreading-deficient DNA polymerase delta assessed as inhibition of parasite growth incubated for 72 hrs by SYBR green-based assay. The data set is classed as functional, organism-based. Particulars: Dd2, 72 h.
The test system of data set [14] is Plasmodium berghei. The data set is described as follows: Antimalarial activity against Plasmodium berghei infected in mouse assessed as reduction in parasitemia in blood at 10 mg/kg, po administered for 4 times starting from 4 to 72 hrs and measured after 96 hrs post infection (reference value: 0%). The data set is classed as functional. Also noted: scale not given: the % may be the effect or the level left.

The subject of data set [15] is Plasmodium berghei. The data set is described as follows: Antimalarial activity against Plasmodium berghei infected in mouse assessed as mean survival days at 50 mg/kg, po administered for 4 times starting from 4 to 72 hrs and monitered for 30 days (reference value: 4 days). The data set is classed as functional. Particulars: time 30 day.
In data set [16] the test system is Plasmodium falciparum. Nature of the data set: Inhibition of hemozoin formation in sorbitol-synchronized early ring stage plasmodium falciparum NF54 trophozoites assessed as increase in free heme level at 1 to 2.5 times IC50 incubated for 28 hrs by flow cytometry analysis. The data set is classed as functional. A general note: Flow cytometry measures light scatter and fluorescence of single cells or particles in a stream.

Data set [17] relates to Plasmodium falciparum. Nature of the data set: Inhibition of hemozoin formation in sorbitol-synchronized early ring stage plasmodium falciparum NF54 trophozoites assessed as reduction in hemozoin level at 1 to 2.5 times IC50 incubated for 28 hrs by flow cytometry analysis. The data set is classed as functional.

Active and inactive are the calls of the source. The calls are words filed in the database; no cut-off is given here. Where only a bound is given, the exact number is not on record here.

Regarding `CCCCN(CCCC)CC(O)c1cc(Cl)cc2c1-c1ccc(Cl)cc1/C2=C/c1ccc(Cl)cc1` (centres undefined) [LUMEFANTRINE], the IC50 (commonly the concentration needed to halve the response being measured) in the data set on Plasmodium falciparum [1] was 0.006 µM; in the data set on Plasmodium falciparum [2] it was 0.002 µM. Moreover, the IC50 at 24 h in [3] was greater than 20 µM. In addition, the selectivity ratio in [4] amounted to 20. Besides, the Activity in the data set with Plasmodium berghei [5] came to 99.8%. The MSD with Plasmodium berghei [6] is greater than 30 days.

`CC(C)(C)c1ccc(/N=C(\N)CC(O)c2ccc(C(C)(C)C)cc2)cc1` (centres undefined): the IC50 in the data set on Plasmodium falciparum [1] and with Plasmodium falciparum [2] was 0.05 µM throughout. The IC50 at 24 h in [3] worked out at 11.8 µM. Moreover, the selectivity ratio in [4] is 236.

As to `N/C(CC(O)c1cc2c(Cl)cc(Cl)cc2c2cc(C(F)(F)F)ccc12)=N\N1CCCCC1` (centres undefined), in [3], the IC50 at 24 h came out at 8.3 µM. For the same compound, the selectivity ratio in data set [4] amounted to 1190.

For `CC(C)(C)c1cc(C(O)C/C(N)=N/c2ccc(F)cc2)cc(C(C)(C)C)c1` (centres undefined), the figures for the IC50 in the data set with Plasmodium falciparum [1] and with Plasmodium falciparum [2] were 0.33 µM and 0.35 µM, respectively.

Regarding `N=C(CC(O)c1cc2ccccc2c2ccccc12)NCc1ccc(F)cc1` (centres undefined), the IC50 in the data set on Plasmodium falciparum [1] is 0.98 µM; with Plasmodium falciparum [2] it was 20 µM. Further, in data set [3], the half-inhibitory concentration (IC50) at 24 h was 9.2 µM. Further, the selectivity ratio in data set [4] was 9.

For the compound `C[C@H]1[C@H](OC(=O)CCC(=O)O)O[C@@H]2O[C@@]3(C)CC[C@H]4[C@H](C)CC[C@@H]1[C@@]24OO3` [ARTESUNATE], in the data set on Plasmodium berghei [5], the Activity came to 99%. Also, in the data set on Plasmodium berghei [6], the MSD was 9 days.

For `N/C(CC(O)c1cc2c(F)cc(F)cc2c2cc(C(F)(F)F)ccc12)=N\CCc1ccc(F)cc1` (centres undefined), the values for the IC50 in the data set with Plasmodium falciparum [1] and in the data set with Plasmodium falciparum [2] were 0.24 µM and 0.12 µM, respectively.

As to `N=C(CC(O)c1cc2ccccc2c2ccccc12)NCCc1ccc(F)cc1` (centres undefined), the IC50 in the data set on Plasmodium falciparum [1] was determined as 0.33 µM; with Plasmodium falciparum [2], 1.1 µM. Also, the IC50 at 24 h in data set [3] was 5 µM. In [4], the selectivity ratio was determined as 16.

For `N=C(CC(O)c1cc2ccccc2c2ccccc12)NCCc1ccccc1` (centres undefined), the IC50 in the data set with Plasmodium falciparum [1] stood at 0.72 µM; in the data set with Plasmodium falciparum [2], 10 µM. For the same compound, the IC50 at 24 h in [3] was determined as 5.7 µM. Also, the selectivity ratio in data set [4] was 8.

Take `N/C(CC(O)c1ccnc2ccccc12)=N\c1ccc(F)cc1` (centres undefined): the IC50 in the data set on Plasmodium falciparum [1] was 3.4 µM; in the data set with Plasmodium falciparum [2], 5.6 µM. For the same compound, in [3], the IC50 at 24 h is greater than 200 µM. For the same compound, the selectivity ratio in data set [4] was greater than 200.

Take `COc1ccc2nccc(C(O)C/C(N)=N/c3ccc(F)cc3)c2c1` (centres undefined): the IC50 was found to be 2.1 µM with Plasmodium falciparum [1] and 5.1 µM in the data set with Plasmodium falciparum [2]. In addition, in data set [3], the IC50 at 24 h was 180 µM. Also, the selectivity ratio in data set [4] was 86.

Consider `Cl.N/C(CC(O)c1c2ccccc2cc2ccccc12)=N\c1ccc(F)cc1` (centres undefined), for which the IC50 in the data set on Plasmodium falciparum [1] was 0.005 µM; with Plasmodium falciparum [2], 0.009 µM. The results for the IC50 at 24 h in data set [3], in data set [7] and in data set [9] were 7.5 µM, 127 µM and 78.3 µM, respectively. In addition, the selectivity ratio in data set [4] came to 1500; in data set [8] it was 25400; in [10], 15700. In addition, the Activity in the data set on Plasmodium berghei [11] is reported as 40%.

Consider `CCN(CC)Cc1cc(/N=C(\N)CC(O)c2cc3ccccc3c3ccccc23)ccc1O` (centres undefined), for which the values for the IC50 in the data set on Plasmodium falciparum [1] and in the data set on Plasmodium falciparum [2] were 0.05 µM and 0.64 µM, respectively. Moreover, the IC50 at 24 h in data set [3] is 15.2 µM. Also, the selectivity ratio in [4] came to 304.

For the compound `N/C(CC(O)c1cc2c(F)cc(F)cc2c2cc(C(F)(F)F)ccc12)=N\N=C\c1ccc(F)cc1` (centres undefined), the IC50 with Plasmodium falciparum [12] was determined as 0.0244 µM; with Plasmodium falciparum [13] it was 0.0268 µM. Also, the Activity in the data set with Plasmodium berghei [5] is 99.4%; with Plasmodium berghei [11] it was 99.9%; with Plasmodium berghei [14], 99.5%. Further, the MSD in the data set with Plasmodium berghei [6] stood at 25 days; in the data set with Plasmodium berghei [15] it was 22 days.

For the compound `N/C(CC(O)c1cc2ccccc2c2ccccc12)=N\c1ccc(F)cc1` (centres undefined), the IC50 with Plasmodium falciparum [1] came out at 0.027 µM; with Plasmodium falciparum [2], 0.04 µM. Moreover, the IC50 at 24 h in data set [3] is 9.3 µM. Besides, the selectivity ratio in data set [4] was 344.

Take `N=C(CC(O)c1cc2c(Cl)cc(Cl)cc2c2cc(C(F)(F)F)ccc12)NCCc1ccc(F)cc1` (centres undefined): the IC50 in the data set with Plasmodium falciparum [1] is 0.35 µM; with Plasmodium falciparum [2], 0.23 µM. Besides, the IC50 at 24 h in data set [3] was 7.3 µM. The selectivity ratio in data set [4] worked out at 21.

Regarding `N=C(CC(O)c1cc2ccccc2c2ccccc12)NCc1ccccc1` (centres undefined), the IC50 in the data set on Plasmodium falciparum [1] is 0.48 µM; in the data set with Plasmodium falciparum [2], 1.5 µM. Moreover, the IC50 at 24 h in [3] was found to be 13 µM. In addition, the selectivity ratio in data set [4] came out at 27.

Regarding `CCN(CC)CCCC(C)Nc1ccnc2cc(Cl)ccc12` (centres undefined) [CHLOROQUINE], the IC50 at 24 h in data set [7] and in [9] was greater than 1000 µM each time. Further, the inhibition entry with Plasmodium falciparum [16] and with Plasmodium falciparum [17] was “Active” throughout. For the same compound, in the data set on Plasmodium berghei [5], the Activity came out at 99.9%. Moreover, the MSD in the data set on Plasmodium berghei [6] was found to be 21 days.

Regarding `COc1ccc(CC/N=C(\N)CC(O)c2cc3ccccc3c3ccccc23)cc1` (centres undefined), the IC50 with Plasmodium falciparum [1] was found to be 0.07 µM; in the data set on Plasmodium falciparum [2] it was 0.7 µM. In addition, the IC50 at 24 h in data set [3] is 9 µM. Also, the selectivity ratio in [4] came out at 129.

Regarding `CC(C)(C)c1ccc(C(O)C/C(N)=N/c2ccc(F)cc2)cc1` (centres undefined), the results for the IC50 in the data set with Plasmodium falciparum [1] and in the data set on Plasmodium falciparum [2] were 1.5 µM and 0.94 µM, respectively. Also, the IC50 at 24 h in data set [3] was 57.5 µM. In addition, the selectivity ratio in [4] was found to be 38.

As for `COc1ccc(/N=C(\N)CC(O)c2ccc(C(C)(C)C)cc2)cc1` (centres undefined), the IC50 in the data set with Plasmodium falciparum [1] was 3.4 µM; in the data set on Plasmodium falciparum [2], 2.4 µM. Moreover, in data set [3], the IC50 at 24 h is 56.2 µM. For the same compound, in [4], the selectivity ratio came to 17.

Consider `N/C(CC(O)c1cc2c(Cl)cc(Cl)cc2c2cc(C(F)(F)F)ccc12)=N\OCc1ccc(F)cc1` (centres undefined), for which the IC50 at 24 h in [3] was 34.1 µM. Further, the selectivity ratio in data set [4] came to 122.

In the case of `N/C(CC(O)c1cc2ccccc2c2ccccc12)=N\CCc1ccccn1` (centres undefined), the IC50 with Plasmodium falciparum [1] was 15 µM; in the data set with Plasmodium falciparum [2] it was 22.8 µM. The IC50 at 24 h in data set [3] turned out to be 50.5 µM. The selectivity ratio in data set [4] amounted to 3.
